According to patent US5192781A, “Thiazole derivatives which are angiotensin II receptor antagonists, their methods of preparation and pharmaceutical compositions in which they are present” (Laboratoires UPSA, priority 1991, dated 1993):

System: rat adrenal angiotensin II receptors
Test: displacement of radioligand [^125 I]-SIAII specifically bound to rat adrenal angiotensin II receptors
Type: binding
Details: 60 min at 25° C.
Experimental: The affinity of the products of the Examples for angiotensin II receptors is evaluated by the technique of displacing a radioligand specifically bound to rat adrenal angiotensin II receptors.
An aliquot of a rat adrenal gland homogenate incubates in the presence of a single concentration of [^125 I]-SIAII (Sar^1,Tyr^4,Ile^8 -angiotensin II), which is an angiotensin II receptor antagonist, and two concentrations of competing agents (10^-5 M, 10^-7 M) for 60 min at 25° C.
The reaction is completed by the addition of a buffer, followed by rapid filtration through glasspaper filters. The non-specific binding is determined in the presence of angiotensin II.
The results are expressed, for the concentrations tested, as the percentage displacement of the radioligand specifically bound to the adrenal angiotensin II receptors.

Row | Structure (SMILES) | % displacement of the labeled ligand (1E-5M competing agent, 10 µM) [%] | % displacement of the labeled ligand (1E-7M competing agent, 0.1 µM) [%]
1 | Cc1nc(C)c(Cc2ccc(NC(=O)c3ccccc3C(=O)O)cc2)s1 [Example 4, 2-[4-((2,4-Dimethylthiazol-5-yl)methyl)phenylaminocarbonyl]benzoic acid] | 58 | 0
2 | CCOC(=O)CNc1nc(C)c(Cc2ccc(NC(=O)c3ccccc3C(=O)O)cc2)s1 [Example 7, Ethyl (4-methyl-5-(4-(2-carboxybenzoylamino)benzyl)thiazol-2-yl)aminoacetate] | 35 | 0
3 | CCCc1nc(C)sc1Cc1ccc(NC(=O)c2ccccc2S(=O)(=O)O)cc1 [Example 11, 2-[4-(2-methyl-4-propylthiazol-5-ylmethyl)phenylaminocarbonyl]benzosulfonic acid] | 94 | 59
4 | CCCc1nc(SCCCC(=O)OCC)sc1Cc1ccc(NC(=O)c2ccccc2S(=O)(=O)O)cc1 [Example 15, Ethyl 4-[[4-propyl-5-(4-(2-sulfobenzoylamino)benzyl)thiazol-2-yl]mercapto]butyrate] | 79 | 0
5 | CCCc1nc(COC)sc1Cc1ccc(NC(=O)c2ccccc2S(=O)(=O)O)cc1 [Example 19, 2-[4-(2-Methoxymethyl-4-propylthiazol-5-yl-methyl)phenylaminocarbonyl]benzosulfonic acid] | 89 | 55
6 | CCCc1nc(NCC(=O)OC)sc1Cc1ccc(NC(=O)c2ccccc2S(=O)(=O)O)cc1 [Example 22, Methyl (4-propyl-5-(4-(2-sulfobenzoylamino)benzyl)thiazol-2-yl)aminoacetate] | 89 | 5
7 | CCCc1nc(CC(=O)OC)sc1Cc1ccc(NC(=O)c2ccccc2S(=O)(=O)O)cc1 [Example 26, 2-[4-(2-methoxycarbonylmethyl-4-propylthiazol-5-ylmethyl)phenylaminocarbonyl]benzosulfonic acid] | 86 | 22
8 | CCCc1nc(CNC(=O)OCC)sc1Cc1ccc(NC(=O)c2ccccc2S(=O)(=O)O)cc1 [Example 30, 2-[4-(2-Ethoxycarbonylaminomethyl-4-propylthiazol-5-ylmethyl)phenylaminocarbonyl]benzosulfonic acid] | 84 | 29
9 | CCCc1nc(N)sc1Cc1ccc(NC(=O)c2ccccc2S(=O)(=O)O)cc1 [Example 33, 2-[4-(2-Amino-4-propylthiazol-5-ylmethyl)phenylaminocarbonyl]benzosulfonic acid] | 85 | 27
10 | CCCc1nc(NC(C)=O)sc1Cc1ccc(NC(=O)c2ccccc2S(=O)(=O)O)cc1 [Example 36, 2-[4-(2-Acetamido-4-propylthiazol-5-yl-methyl)phenylaminocarbonyl]benzosulfonic acid] | 84 | 3
11 | CCCCCc1nc(C)sc1Cc1ccc(NC(=O)c2ccccc2S(=O)(=O)O)cc1 [Example 40, 2-[4-(2-methyl-4-pentylthiazol-5-ylmethyl)phenylaminocarbonyl]benzosulfonic acid] | 88 | 59
12 | CCCc1nc(N)sc1Cc1ccc(NC(=O)c2c(Cl)ccc(Cl)c2C(=O)O)cc1 [Example 41, 2-[4-(2-Amino-4-propylthiazol-5-ylmethyl)phenylaminocarbonyl]-3,6-dichlorobenzoic acid] | 87 | 9
13 | CCCCCc1nc(N)sc1Cc1ccc(NC(=O)c2ccccc2S(=O)(=O)O)cc1 [Example 44, 2-[4-(2-Amino-4-pentylthiazol-5-ylmethyl)phenylaminocarbonyl]benzosulfonic acid] | 91 | 44
